Experimental data from patent US20260193293A1, “PEPTIDES CAPABLE OF INHIBITING PROTEIN-PROTEIN INTERACTIONS AT GABAB1A SUBUNIT AND USES THEREOF” (UNIVERSITY OF COPENHAGEN, priority 2022, published 2026).
Read-outs that look alike come from different tables or passages of the source. Each block holds one compound with its values, some of them ahead of it. Non-standard residues stand in square brackets, D forms with d. Residues, ends and D or L forms follow the SMILES beside them. Sar = CNCC(=O)O

Target: Sushi domains (SD1/2) protein
Assay: Fluorescence polarization (FP) competition assay with AJAP-1probe, calculated Ki
Type: binding
Details: read-out: Ki (nM) mean ± SEM
Description: Fluorescence polarization (FP). FP assay was employed to determine the binding affinity of peptides in flat bottom black 384-well plates (Corning Life Science) using a Safire2 plate reader (Tecan). All experiments were conducted in 1×PBS (pH 7.4) containing 1% bovine serum albumin (BSA) at rt. The fluorescence polarization values were measured using excitation/emission wavelengths of 530/580 nm. The instrumental Z-factor was adjusted to obtain the maximum fluorescence intensity and the G-factor was calibrated to give an initial millipolarization value of 20 mP. All FP assays including saturation or competition experiments were performed using 25 nM of TAMRA labeled peptides as probes. For saturation assay, the millipolarization values were measured after mixing of probes with 12 serial 1 to 1 diluted concentrations of Sushi domains (SD1/2) protein. All experiments were performed in triplicate and the data were plotted to the one-site binding model using GraphPad Prism 9 to calculate the Kd of probes. […] The experiments were performed at least in triplicate and the data were fitted to the sigmoidal dose response curve using GraphPad Prism 9 to obtain the IC50 of peptides. The Ki values were calculated according to Nikolovska-Coleska et al^310.

Ki (Table 9, Ala-, D-amino acids and N-methylation scans of PIANPWT): 58300 ± 4410 nM
Compound: CC[C@H](C)[C@H](NC(=O)[C@H](C)NC(=O)[C@H](Cc1c[nH]c2ccccc12)NC(=O)[C@@H]1CCCN1C(C)=O)C(=O)N[C@H](C(=O)N[C@@H](Cc1c[nH]c2ccccc12)C(=O)N(C)CC(=O)N1CCC[C@H]1C(=O)N[C@H](C(=O)N[C@H](C(=O)N[C@@H](CO)C(=O)N[C@@H](CCCNC(=N)N)C(=O)N[C@@H](CCC(=O)O)C(=O)N[C@@H](CC(=O)O)C(N)=O)C(C)C)[C@@H](C)O)C(C)C [PWAIVW(N-Me-G)PTVSRED] (Ac-PWAIVW[Sar]PTVSRED-NH2)

Ki (Table 6, elongation and truncation scan of PIANP binding epitope): 716 ± 6 nM
Compound: CC[C@H](C)[C@H](NC(=O)[C@H](C)NC(=O)[C@H](Cc1c[nH]c2ccccc12)NC(=O)[C@@H]1CCCN1C(C)=O)C(=O)N[C@H](C(=O)N[C@@H](Cc1c[nH]c2ccccc12)C(=O)NCC(=O)N1CCC[C@H]1C(=O)N[C@H](C(N)=O)[C@@H](C)O)C(C)C (Ac-PWAIVWGPT-NH2)

Further lines, the compound ahead of its results:

Compound: CC[C@H](C)[C@H](NC(=O)[C@H](C)NC(=O)[C@H](Cc1c[nH]c2ccccc12)NC(C)=O)C(=O)N[C@H](C(=O)N[C@@H](Cc1c[nH]c2ccccc12)C(=O)NCC(=O)N1CCC[C@H]1C(=O)N[C@H](C(=O)N[C@H](C(=O)N[C@@H](CO)C(=O)N[C@@H](CCCNC(=N)N)C(=O)N[C@@H](CCC(=O)O)C(=O)N[C@@H](CC(=O)O)C(=O)NCC(=O)NCC(N)=O)C(C)C)[C@@H](C)O)C(C)C (Ac-WAIVWGPTVSREDGG-NH2)
Ki (Table 3, SPOT hit validation and previously reported peptides): 1350 ± 49 nM

Compound: CC[C@H](C)[C@H](NC(=O)[C@H](Cc1ccccc1)NC(=O)[C@H](CCC(=O)O)NC(=O)[C@@H](NC(=O)[C@H](CCC(=O)O)NC(C)=O)[C@@H](C)O)C(=O)N[C@@H](C)C(=O)N[C@@H](Cc1c[nH]c2ccccc12)C(=O)NCC(=O)N1CCC[C@H]1C(=O)N[C@H](C(=O)NCC(=O)N[C@@H](C)C(=O)N[C@@H](CCC(=O)O)C(=O)N[C@@H](CC(=O)O)C(N)=O)[C@@H](C)O [ETEFIAWGPTGAED] (Ac-ETEFIAWGPTGAED-NH2)
Ki (Table 8, Ala-, D-amino acids and N-methylation scans of AJAP-1WT): 50 ± 1 nM

Compound: CC[C@H](C)[C@H](NC(=O)[C@H](Cc1c[nH]c2ccccc12)NC(=O)[C@H](CC(=O)O)NC(=O)[C@H](CC(=O)O)NC(=O)[C@H](CC(=O)O)NC(=O)[C@H](CCC(=O)O)NC(=O)[C@H](CCCNC(=N)N)NC(=O)[C@H](CCCNC(=N)N)NC(=O)[C@H](CCCNC(=N)N)NC(=O)[C@H](CCCNC(=N)N)NC(C)=O)C(=O)N[C@@H](CC(=O)O)C(=O)N[C@@H](Cc1c[nH]c2ccccc12)C(=O)N[C@@H](Cc1ccc(O)cc1)C(=O)N[C@@H](CC(=O)O)C(=O)N[C@@H](CO)C(=O)N[C@@H](CC(=O)O)C(=O)N[C@@H](CC(=O)O)C(=O)N[C@@H](CC(=O)O)C(N)=O [Peptide 4R-16] (Ac-RRRREDDDWIDWYDSDDD-NH2)
Ki (Table 14, CPPs tagged peptides): 20.6 ± 0.2 nM

Compound: COc1ccc(C[C@H](NC(=O)[C@H](Cc2c[nH]c3ccccc23)NC(=O)[C@H](Cc2c[nH]c3ccccc23)NC(=O)[C@@H](NC(=O)[C@H](CC(=O)O)NC(=O)[C@H](CO)NC(=O)[C@H](CC(=O)O)NC(=O)[C@H](CC(=O)O)NC(=O)[C@H](CCC(=O)O)NC(C)=O)C(C)C)C(=O)NCC(=O)N[C@@H](C)C(=O)N[C@@H](CC(=O)O)C(=O)N[C@H](C(=O)N[C@@H](CC(=O)O)C(N)=O)[C@@H](C)O)cc1 (Ac-EDDSDVWWY(Me)GADTD-NH2)
Ki (Table 16, ncAAs incorporated peptides): 109 ± 4 nM

Compound: CC(=O)N[C@@H](CCC(=O)O)C(=O)N[C@@H](CCC(=O)O)C(=O)N[C@@H](CC(=O)O)C(=O)N[C@@H](CC(=O)O)C(=O)N[C@@H](CO)C(=O)N[C@@H](CC(=O)O)C(=O)N[C@H](C(=O)N[C@@H](Cc1c[nH]c2ccccc12)C(=O)N[C@@H](Cc1c[nH]c2ccccc12)C(=O)NCC(N)=O)C(C)C (Ac-EEDDSDVWWG-NH2)
Ki (Table 4, truncation and elongation scans of APP epitope): 12800 ± 415 nM

Compound: CC[C@H](C)[C@H](NC(=O)[C@H](Cc1ccccc1)NC(=O)[C@H](CCC(=O)O)NC(=O)[C@@H](NC(=O)[C@H](CCC(=O)O)NC(=O)[C@@H](NC(C)=O)[C@@H](C)O)[C@@H](C)O)C(=O)N[C@@H](C)C(=O)N[C@@H](Cc1c[nH]c2ccccc12)C(=O)NCC(=O)N1CCC[C@H]1C(=O)N[C@H](C(N)=O)[C@@H](C)O (Ac-TETEFIAWGPT-NH2)
Ki (Table 5, elongation and truncation scan of AJAP-1 binding epitope): 236 ± 9 nM
